Experimental data reported in patent publication US6692927B2, “Bax degradation involvement in tumor survival and progression” (University of South Florida, priority 2000, dated 2004).
Where a SMILES comes first, the peptide text is derived from it. [ ]: non-standard residue; d: D form. The star is where a group is joined. Nva = CCC[C@H](N)C(=O)O; Cbz = O=C(OCc1ccccc1)*

How the values were obtained:
[1] = system: SV40-transformed (VA-13) cells; assay: PARP cleavage, cytochrome c release and Bax accumulation in SV40-transformed fibroblasts; format: cell-based, human
Source text: (§1) Proteasome inhibitors activate Bax- and cytochrome c-dependent apoptosis pathway preferentially in transformed human fibroblasts. Normal human fibroblasts are more resistant to proteasome inhibitor-induced apoptosis than transformed and cancer cells (An et al., in press). This is probably due to inability of the normal cells to accumulate Bax protein in response to proteasome inhibition, and consequently failure to release cytochrome c. To test this hypothesis, both SV40-transformed and normal WI-38 cells were treated with 50 microM LLnV for up to 24 hours, followed by measurement of PARP cleavage, cytochrome c release and Bax accumulation. […] In contrast, only after 24 hours treatment, low levels of p85/PARP fragment and cytosolic cytochrome c were detected in normal WI-38 cells (FIGS. 1, A, B, lanes 8-14). […] The levels of Bax/p21 were increased at as early as 4 hours and remained high afterwards. […] The level of another band of ˜47 kDa increased at 4 hours, further increased between 6 and 12 hours, and then decreased (FIG. 1C). The p70 and p47 bands can contain ubiquitinated forms of Bax since similar polypeptides were detected by antibodies to both Bax and ubiquitin (Li et al., 1999). […] Therefore, although unable to activate the Bax- and cytochrome c-dependent apoptotic pathway in response to a low concentration of a proteasome inhibitor, normal cells are capable of undergoing Bax- and cytochrome c-independent apoptosis in response to a proteasome inhibitor at higher concentrations.
(§2) SV40-transformed (VA-13) and normal WI-38 cells were treated with 50 microM LLnV or DMSO (letter D) for up to 24 hours, followed by measurement of PARP cleavage (A), cytochrome c release (B) and Bax accumulation (C; also see FIG. 2). Panel D, exponentially grown VA-13 cells were pretreated with 50 microM LLnV or DMSO for 1 hour, washed with methionine-free medium, and then incubated for 30 minutes in methionine-free medium plus 50 microM LLnV (or DMSO). This was followed by replacing fresh methionine-free medium containing 150 microCi/ml of [^35S]-methionine, 10% dialyzed FBS and 50 microM LLnV (or DMSO). Cells were further incubated for 6 hours, followed by preparation of [^35S]-labeled protein lysates and Bax immunoprecipitates (6A7, PharMingen). The labeled Bax bands are indicated. […] Bax-alpha subcloned into pcDNA3 was used for coupled in vitro transcription/translation in the presence of [^35S]methionine. For Bax cleavage assay, the whole cell extracts were prepared. The [^35S]-labeled Bax (0.7 microl) was incubated with 50 microg protein in assay buffer (containing 50 microM LLM and no Ca^2+) for 4 hours at 37° C. Following incubation, the samples were subjected to SDS gel electrophoresis and autoradiography.

normal WI-38 cells = assay: PARP cleavage, cytochrome c release, Bax and p21 in normal fibroblasts; format: cell-based, human; conditions: 50 microM LLnV
Source text: as §1, §2

MCF-7 cells = assay: Bax level and PARP cleavage in MCF-7 cells; format: cell-based, human; conditions: LLnV
Source text: Levels of BDA predict levels of Bax and consequently influence sensitivity of human cancer cells to proteasome inhibitor-induced apoptosis. Basal level of Bax protein in SV40-transformed WI-38 cells (VA13) was several-fold higher than that of human breast cancer MCF-7 cells (FIG. 1E, top panel, lanes 1 vs. 3). This is due to a much lower level of BDA in VA13 cells than in MCF-7 cells (FIG. 1E, lower panel, lanes 1 vs. 3). This conclusion is further confirmed by using increased amounts of protein extracts of each cell line in the cell-free BDA assay (FIG. 4A, top panel). […] In contrast, when MCF-7 cells were treated under the same conditions, Bax levels were not increased; PARP was cleaved only after 24 hours treatment, which is Bax-independent (FIG. 4B, lanes 6-9). Therefore, although highly preliminary, it appears that levels of BDA determine levels of Bax and consequently affect responsiveness of human cancer cells to proteasome inhibition-induced apoptosis.

[2] = system: normal human breast cells MCF-10A; assay: cellular detachment of normal breast cells; format: cell-based; conditions: 48 hours or even 72 hours
Protocol: Proteasome inhibitors selectively induce apoptosis in human breast cancer, but not normal, cells. […] Cells of both human breast cancer lines became detached in a lactacystin-concentration-dependent manner (FIG. 3). No detachment was induced in the normal human breast cells MCF-10A after treatment with lactacystin for 48 hours (FIG. 3) or even 72 hours. Proteasome inhibition-induced detachment of breast cancer cells is due to apoptosis (An et al., in press).

SMILES | earliest time of increased Bax/p21 levels ([1]; 50 microM LLnV) | Bax levels ([1]; 50 microM LLnV, prior to release of cytochrome c) | time at which cleavage of PARP and release of cytochrome c were detected ([1]; 50 microM LLnV, up to 24 hours) | Bax accumulation and apoptosis (PARP cleavage) ([1]; LLnV treatment (FIG. 4B)) | time at which low levels of p85/PARP fragment and cytosolic cytochrome c were detected (normal WI-38 cells) | time after which PARP was cleaved (MCF-7 cells; Bax-independent) | Bax levels (MCF-7 cells; same conditions as VA-13) | cellular detachment [2]
CCC[C@@H](C=O)NC(=O)[C@H](CC(C)C)NC(=O)[C@H](CC(C)C)NC(=O)OCc1ccccc1 [LLnV] (Cbz-Leu-Leu-[Nva]-aldehyde) | 4 h | dramatically increased | 8 h | rapidly accumulated Bax protein and subsequently induced apoptosis | 24 h | 24 h | not increased | –
CC(=O)N[C@@H](CSC(=O)[C@]1([C@@H](O)C(C)C)NC(=O)[C@H](C)[C@@H]1O)C(=O)O [lactacystin] | – | – | – | – | – | – | – | No detachment
